Experimental data published in patent US7141586B2, “Nicotinamide derivatives useful as PDE4 inhibitors” (Pfizer Inc., priority 2003, dated 2006).

Tested on: not given
Assay: not given
Details: not given

| melting point [°C] | Compound |
| --- | --- |
| 99 to 101 | CSc1cccc(Oc2ncc(F)cc2C(=O)N[C@H]2CCCC[C@H]2O)c1 (relative stereo) [Example 31, 5-Fluoro-N-[cis-2-hydroxy-cyclohexyl]-2-(3-methylsulfanyl-phenoxy)-nicotinamide] |
| 128 to 129 | CSc1cccc(Oc2ncc(F)cc2C(=O)N[C@H]2CCCC[C@@H]2CO)c1 (relative stereo) [Example 56, 5-Fluoro-N-[trans-2-hydroxymethyl-cyclohexyl]-2-(3-methylsulfanyl-phenoxy)-nicotinamide] |
| 123 to 126 | CSc1cccc(Oc2ncc(F)cc2C(=O)N[C@H]2CC[C@@H](CO)CC2)c1 [Example 60, 5-Fluoro-N-(cis-4-hydroxymethyl-cyclohexyl)-2-(3-methylsulfanyl-phenoxy)-nicotinamide] |

Tested on: TNFα release from human peripheral blood mononuclear cells
Assay: Inhibition of LPS-stimulated TNFα release from human peripheral blood mononuclear cells (TNFα screen)
Format: cell-based
Details: human PBMC stimulated with lipopolysaccharide, 18 hours incubation, TNFα in supernatant by ELISA
Protocol: Venous blood is collected from healthy volunteers and the mononuclear cells purified by centrifugation through Histopaque (Ficoll) cushions. TNFα production from these cells is stimulated by addition of lipopolysaccharide. After 18 hours incubation in the presence of LPS, the cell supernatant is removed and the concentration of TNFα in the supernatant determined by ELISA. Addition of PDE4 inhibitors reduces the amount of TNFα produced. An IC50 is determined which is equal to the concentration of compound that gives 50% inhibition of TNFα production as compared to the LPS stimulated control wells.

| Compound | IC50 [nM] |
| --- | --- |
| CSc1cccc(Oc2ncc(F)cc2C(=O)N[C@H]2CC[C@@H](NC(=O)c3cc(C)ccc3O)CC2)c1 [Example 1, Syn-5-Fluoro N-[4-(2-hydroxy-5-methyl-benzoylamino)-cyclohexyl]-2-(3-methylsulfanyl-phenoxy)-nicotinamide] | 0.4 |
| Syn-5-fluoro-2-(3-methylsulfanyl-phenoxy)-N-{4-[(2,3-dimethyl-1H-pyrazole-5-carbonyl)-amino]-cyclohexyl}-nicotinamide [Example 3] | 0.37 |
| Syn-5-fluoro-N-[4-(2-hydroxy-4-methyl-benzoylamino)-cyclohexyl]-2-(3-methylsulfanyl-phenoxy)-nicotinamide [Example 10] | 0.05 |
| Syn-5-fluoro-N-[4-(2-hydroxy-benzoylamino)-cyclohexyl]-2-(3-methylsulfanyl-phenoxy)-nicotinamide [Example 11] | 0.05 |
| Syn-5-fluoro-N-[4-(4-hydroxy-2-methoxy-benzoylamino)-cyclohexyl]-2-(3-methylsulfanyl-phenoxy)-nicotinamide [Example 22] | 0.07 |
| Syn-5-fluoro-N-[4-(5-chloro-2-hydroxy-benzoylamino)-cyclohexyl]-2-(3-methylsulfanyl-phenoxy)-nicotinamide [Example 5] | 0.15 |
| Syn-5-fluoro-N-{4-[(1H-imidazole-5-carbonyl)-amino]-cyclohexyl}-2-(3-methylsulfanyl-phenoxy)-nicotinamide [Example 18] | 0.6 |
| Syn-5-fluoro-N-{4-[(4-methyl-1H-imidazole-2-carbonyl)-amino]-cyclohexyl}-2-(3-methylsulfanyl-phenoxy)-nicotinamide [Example 4] | 0.15 |
